# Experimental data published in ChEMBL document CHEMBL1909046, “DrugMatrix in vitro pharmacology data”.
# Assays:
# [1] = DRUGMATRIX: Calcium Channel Type L, Phenylalkylamine radioligand binding (ligand: [3H] (-)-Desmethoxyverapamil (D-888)); assay type: cell membranes, Rattus norvegicus, Wistar, Brain, Membrane; conditions: Not Active = under 50% inhibition at 10 µM
# [2] = target: T1, Adenosine receptor A3 (Homo sapiens, UniProt P0DMS8); assay type: cell membranes, CHO-K1, Membrane; conditions: cho-k1; for Ki: read-out: Ki;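 on all read-outs here: radioligand binding assay with AB-MECA serving as the labeled ligand; in other assays of this panel Not Active means under 50% inhibition at 10 µM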
# T1 sequence (P0DMS8 whole entry): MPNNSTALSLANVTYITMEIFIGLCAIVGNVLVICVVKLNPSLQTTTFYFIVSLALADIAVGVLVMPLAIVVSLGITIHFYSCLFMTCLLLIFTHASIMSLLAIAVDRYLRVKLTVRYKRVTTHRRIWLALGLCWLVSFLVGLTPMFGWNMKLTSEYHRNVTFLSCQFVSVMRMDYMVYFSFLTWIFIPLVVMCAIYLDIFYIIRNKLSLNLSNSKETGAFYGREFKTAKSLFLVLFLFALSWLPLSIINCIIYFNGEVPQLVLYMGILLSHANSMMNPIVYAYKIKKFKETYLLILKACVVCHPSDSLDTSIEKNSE
# [3] = target: T2, Calcitonin receptor (Homo sapiens, UniProt P30988); assay type: cell membranes, Membrane; conditions: t47d; further: in other assays of this panel Not Active means under 50% inhibition at 10 µM
# T2 sequence (P30988 whole entry): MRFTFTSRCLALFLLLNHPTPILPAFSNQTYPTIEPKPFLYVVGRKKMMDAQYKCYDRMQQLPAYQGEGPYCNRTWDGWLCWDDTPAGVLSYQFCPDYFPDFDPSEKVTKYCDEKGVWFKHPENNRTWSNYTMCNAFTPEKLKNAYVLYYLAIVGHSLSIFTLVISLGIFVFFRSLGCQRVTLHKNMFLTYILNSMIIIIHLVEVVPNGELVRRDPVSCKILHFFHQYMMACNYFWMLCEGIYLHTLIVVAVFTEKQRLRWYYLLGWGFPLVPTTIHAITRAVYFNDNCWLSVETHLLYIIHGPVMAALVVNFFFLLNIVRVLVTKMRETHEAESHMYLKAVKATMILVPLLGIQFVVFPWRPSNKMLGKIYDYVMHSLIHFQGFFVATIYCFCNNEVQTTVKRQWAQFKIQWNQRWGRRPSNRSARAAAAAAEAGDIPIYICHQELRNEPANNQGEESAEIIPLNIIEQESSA
# [4] = target: Prostaglandin G/H synthase 1 (Homo sapiens, UniProt P23219); assay: biochemical; assay type: tissue-based, Platelet; conditions: platelet;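 further: inhibition of COX-1 enzyme activity, with arachidonic acid supplied as substrate; in other assays of this panel Not Active means under 50% inhibition at 10 µM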
# [5] = target: 5-hydroxytryptamine receptor 2B (Homo sapiens, UniProt P41595); assay type: cell membranes, CHO-K1, Membrane; conditions: cho-k1; further: in other assays of this panel Not Active means under 50% inhibition at 10 µM
# [6] = DRUGMATRIX: Potassium Channel [KATP] radioligand binding (ligand: [3H] Glyburide); assay type: cell membranes, Membrane; conditions: hit-t15; Not Active = under 50% inhibition at 10 µM
# [7] = target: T3, Interstitial collagenase (Homo sapiens, UniProt P03956); assay type: tissue-based, Rheumatoid synovial fibroblasts
# T3 sequence (P03956 whole entry): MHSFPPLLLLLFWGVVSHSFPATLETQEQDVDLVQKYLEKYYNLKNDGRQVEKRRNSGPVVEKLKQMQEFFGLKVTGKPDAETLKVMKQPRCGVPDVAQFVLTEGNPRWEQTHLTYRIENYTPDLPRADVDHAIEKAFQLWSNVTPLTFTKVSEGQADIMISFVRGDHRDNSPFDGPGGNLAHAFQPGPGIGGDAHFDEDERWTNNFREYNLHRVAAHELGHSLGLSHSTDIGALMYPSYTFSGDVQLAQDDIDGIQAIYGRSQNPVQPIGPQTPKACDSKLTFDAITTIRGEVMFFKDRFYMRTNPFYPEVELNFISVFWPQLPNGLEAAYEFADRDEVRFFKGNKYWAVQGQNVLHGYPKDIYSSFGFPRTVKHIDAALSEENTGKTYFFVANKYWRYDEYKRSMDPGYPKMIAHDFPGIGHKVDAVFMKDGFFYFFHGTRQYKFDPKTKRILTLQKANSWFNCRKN
# [8] = DRUGMATRIX: Phosphodiesterase PDE4 enzyme inhibition (substrate: [3H]cAMP + cAMP); conditions: u-937; Not Active = under 50% inhibition at 10 µM
# [9] = target: T4, Estrogen receptor (Homo sapiens, UniProt P03372); conditions: sf9; further: in other assays of this panel Not Active means under 50% inhibition at 10 µM
# T4 sequence (P03372 whole entry): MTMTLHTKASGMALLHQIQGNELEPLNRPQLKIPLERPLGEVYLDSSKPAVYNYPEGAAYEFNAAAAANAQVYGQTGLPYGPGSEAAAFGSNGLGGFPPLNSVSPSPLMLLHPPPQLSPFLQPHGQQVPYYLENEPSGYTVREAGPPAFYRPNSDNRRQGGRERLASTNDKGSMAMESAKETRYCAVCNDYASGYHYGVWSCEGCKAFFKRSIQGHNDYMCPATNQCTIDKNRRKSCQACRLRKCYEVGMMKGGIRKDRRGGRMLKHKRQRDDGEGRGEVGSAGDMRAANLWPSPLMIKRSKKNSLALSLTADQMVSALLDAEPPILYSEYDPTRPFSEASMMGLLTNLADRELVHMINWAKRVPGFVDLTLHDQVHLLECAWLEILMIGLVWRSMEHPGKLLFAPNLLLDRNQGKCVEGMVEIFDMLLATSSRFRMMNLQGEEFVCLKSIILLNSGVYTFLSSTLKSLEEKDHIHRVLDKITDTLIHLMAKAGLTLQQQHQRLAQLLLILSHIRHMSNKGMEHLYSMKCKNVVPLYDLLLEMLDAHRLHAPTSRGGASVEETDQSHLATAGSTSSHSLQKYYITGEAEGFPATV
# [10] = DRUGMATRIX: Sigma2 radioligand binding (ligand: [3H] Ifenprodil); assay type: cell membranes, Rattus norvegicus, Wistar, Brain, Membrane; conditions: Not Active = under 50% inhibition at 10 µM
# [11] = target: T5, B2 bradykinin receptor (Homo sapiens, UniProt P30411); assay type: cell membranes, Membrane; conditions: chem-1; further: in other assays of this panel Not Active means under 50% inhibition at 10 µM
# T5 sequence (P30411 whole entry): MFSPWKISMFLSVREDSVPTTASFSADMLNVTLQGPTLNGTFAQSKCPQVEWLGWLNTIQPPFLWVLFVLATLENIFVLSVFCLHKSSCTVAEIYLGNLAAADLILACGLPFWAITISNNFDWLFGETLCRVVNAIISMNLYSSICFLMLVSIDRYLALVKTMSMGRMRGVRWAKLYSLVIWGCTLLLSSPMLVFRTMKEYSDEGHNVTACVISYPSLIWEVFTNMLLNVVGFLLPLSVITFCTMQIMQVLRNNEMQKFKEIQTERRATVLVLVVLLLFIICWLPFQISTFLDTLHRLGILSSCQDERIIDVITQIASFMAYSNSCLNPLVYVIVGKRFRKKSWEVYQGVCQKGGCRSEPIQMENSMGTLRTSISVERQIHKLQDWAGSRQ
# [12] = target: Carbonic anhydrase 2 (Homo sapiens, UniProt P00918); assay: DRUGMATRIX: Carbonic Anhydrase II enzyme inhibition (substrate: 4-Nitrophenyl acetate (4-NPA)); assay type: tissue-based, Erythrocyte; conditions: erythrocyte; Not Active = under 50% inhibition at 10 µM
# 5-hydroxytryptamine receptor 2B, sequence (P41595 whole entry): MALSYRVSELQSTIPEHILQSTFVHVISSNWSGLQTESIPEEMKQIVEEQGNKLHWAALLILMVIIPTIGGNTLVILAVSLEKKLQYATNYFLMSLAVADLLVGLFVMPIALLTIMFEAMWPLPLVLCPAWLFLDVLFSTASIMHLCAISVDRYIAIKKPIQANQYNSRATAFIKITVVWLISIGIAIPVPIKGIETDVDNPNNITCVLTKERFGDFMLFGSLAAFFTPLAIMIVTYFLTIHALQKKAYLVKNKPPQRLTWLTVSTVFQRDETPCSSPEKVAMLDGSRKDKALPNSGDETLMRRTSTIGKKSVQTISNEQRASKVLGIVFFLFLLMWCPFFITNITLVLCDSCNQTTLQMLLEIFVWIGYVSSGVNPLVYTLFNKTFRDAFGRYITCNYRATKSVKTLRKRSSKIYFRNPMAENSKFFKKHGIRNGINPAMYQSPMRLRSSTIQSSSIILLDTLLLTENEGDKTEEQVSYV
# Prostaglandin G/H synthase 1, sequence (P23219 whole entry): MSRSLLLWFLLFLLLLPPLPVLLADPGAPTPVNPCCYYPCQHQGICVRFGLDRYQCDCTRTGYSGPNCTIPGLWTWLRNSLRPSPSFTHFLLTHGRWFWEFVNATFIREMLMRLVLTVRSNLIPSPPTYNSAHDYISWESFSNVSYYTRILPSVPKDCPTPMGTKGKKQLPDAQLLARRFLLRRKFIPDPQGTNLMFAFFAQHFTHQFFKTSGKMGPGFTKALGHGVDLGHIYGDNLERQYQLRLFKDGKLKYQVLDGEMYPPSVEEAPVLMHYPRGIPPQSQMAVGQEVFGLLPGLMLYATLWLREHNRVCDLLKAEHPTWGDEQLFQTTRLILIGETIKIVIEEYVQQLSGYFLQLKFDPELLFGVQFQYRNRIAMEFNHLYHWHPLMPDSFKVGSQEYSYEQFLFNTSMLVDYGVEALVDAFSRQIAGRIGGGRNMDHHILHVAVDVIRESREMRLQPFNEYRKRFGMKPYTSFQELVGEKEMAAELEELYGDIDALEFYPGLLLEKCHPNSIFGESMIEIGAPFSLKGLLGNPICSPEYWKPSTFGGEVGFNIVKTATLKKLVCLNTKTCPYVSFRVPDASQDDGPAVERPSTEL
Molecule,IC50 [1],Ki [1],IC50 [2],IC50 [3],IC50 [4],IC50 [5],IC50 [6],Ki [6],IC50 [7],IC50 [8],Ki [8],IC50 [9],IC50 [10],Ki [10],IC50 [11],IC50 [12],IC50 ([2]; read-out: IC50) [µM],Ki [2] [µM],Ki [3],Ki [4],also measured
COC1=CC(=O)C[C@@H](C)[C@]12Oc1c(Cl)c(OC)cc(OC)c1C2=O [GRISEOFULVIN],Not Active,Not Active,Not Active,Not Active,Not Active,Not Active,Not Active,Not Active,Not Active,Not Active,Not Active,Not Active,Not Active,Not Active,Not Active,Not Active,,,,,
O=C1CN=C(c2ccccc2)c2cc([N+](=O)[O-])ccc2N1 [NITRAZEPAM],Not Active,Not Active,Not Active,Not Active,Not Active,Not Active,Not Active,Not Active,Not Active,Not Active,Not Active,Not Active,Not Active,Not Active,Not Active,Not Active,,,,,
CISPLATIN,Not Active,Not Active,,Not Active,Not Active,Not Active,Not Active,Not Active,Not Active,Not Active,Not Active,Not Active,Not Active,Not Active,Not Active,Not Active,4.24,2.4,Not Active,Not Active,Ki [5]: Not Active; Ki [7]: Not Active; Ki [9]: Not Active; Ki [11]: Not Active; Ki [12]: Not Active
GOLD SODIUM THIOMALATE,Not Active,Not Active,,Not Active,Not Active,Not Active,Not Active,Not Active,Not Active,Not Active,Not Active,Not Active,Not Active,Not Active,Not Active,Not Active,1.49,0.843,Not Active,Not Active,Ki [5]: Not Active; Ki [7]: Not Active; Ki [9]: Not Active; Ki [11]: Not Active; Ki [12]: Not Active
CN(C)[C@@H]1C(O)=C(C(N)=O)C(=O)[C@@]2(O)C(O)=C3C(=O)c4c(O)cccc4[C@@](C)(O)[C@H]3[C@H](O)[C@@H]12 [OXYTETRACYCLINE],Not Active,Not Active,Not Active,Not Active,Not Active,Not Active,Not Active,Not Active,Not Active,Not Active,Not Active,Not Active,Not Active,Not Active,Not Active,Not Active,,,,,
